pEC50: −log10 of the molar value.

The species named for one data set is Homo sapiens. As to the kind of experiment: Selectivity ratio of EC50 for recombinant human GST-tagged FXR LBD (193 to 472 residues) expressed in baculovirus-infected insect cells to EC50 for human TGR5 expressed in HEK293 cells.
Data set [1] addresses T1, Bile acid receptor (Homo sapiens) (UniProt Q96RI1).
T1 sequence (whole entry): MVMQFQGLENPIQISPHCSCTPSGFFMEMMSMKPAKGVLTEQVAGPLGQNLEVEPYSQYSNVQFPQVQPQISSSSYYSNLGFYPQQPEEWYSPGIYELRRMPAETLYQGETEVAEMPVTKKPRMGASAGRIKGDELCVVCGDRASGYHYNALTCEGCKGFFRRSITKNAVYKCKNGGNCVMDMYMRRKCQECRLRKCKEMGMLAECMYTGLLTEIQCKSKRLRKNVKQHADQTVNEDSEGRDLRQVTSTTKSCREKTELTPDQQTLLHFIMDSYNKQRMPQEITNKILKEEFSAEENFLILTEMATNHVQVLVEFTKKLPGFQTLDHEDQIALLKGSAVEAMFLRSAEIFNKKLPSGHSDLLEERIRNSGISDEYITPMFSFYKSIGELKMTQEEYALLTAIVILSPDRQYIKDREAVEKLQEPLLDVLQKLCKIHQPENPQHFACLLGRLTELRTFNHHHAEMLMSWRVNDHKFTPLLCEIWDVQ
Kind of data set: Agonist activity at recombinant human GST-tagged FXR LBD (193 to 472 residues) expressed in baculovirus-infected insect cells assessed as recruitment of biotinylated SRC1 peptide measured after 1 hr by Alphascreen assay relative to CDCA.

A short description of data set [2]: Drug level in C57BL/6 mouse plasma at 2 mg/kg, po administered as single cassette dose via gavage measured at 3 hrs post dose by LC-MS/MS analysis. The data set is classed as ADME, organism-based.
The target of data set [3] is T2, G-protein coupled bile acid receptor 1 (Homo sapiens, UniProt Q8TDU6).
T2 sequence (Q8TDU6 whole entry): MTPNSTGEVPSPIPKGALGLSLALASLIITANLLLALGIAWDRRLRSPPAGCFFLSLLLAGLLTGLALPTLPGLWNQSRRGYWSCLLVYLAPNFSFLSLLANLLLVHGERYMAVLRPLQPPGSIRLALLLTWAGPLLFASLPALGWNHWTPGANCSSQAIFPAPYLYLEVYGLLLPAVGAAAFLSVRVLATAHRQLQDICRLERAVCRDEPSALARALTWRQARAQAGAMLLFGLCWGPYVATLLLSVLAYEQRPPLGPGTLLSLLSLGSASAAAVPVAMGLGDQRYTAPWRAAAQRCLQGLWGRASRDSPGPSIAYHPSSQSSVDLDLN
Kind of data set: Agonist activity at human TGR5 expressed in HEK293 cells assessed as increase in intracellular cAMP level after 1 hr by TR-FRET assay. The class given is functional, cell-based. (In general: cAMP levels reflect the balance of adenylyl cyclase and phosphodiesterase activity.)

Data set [4] can be described thus: Ratio of drug level in liver to plasma in C57BL/6 mouse at 2 mg/kg, po administered as single cassette dose via gavage measured at 3 hrs post dose. The class given is ADME, organism-based.
Data set [5] can be described thus: Drug level in C57BL/6 mouse plasma at 2 mg/kg, po administered as single dose via gavage measured at 0.5 hrs post dose by LC-MS/MS analysis. The data set is classed as ADME, organism-based.
Data set [6] can be described thus: Drug level in C57BL/6 mouse liver at 2 mg/kg, po administered as single cassette dose via gavage measured at 3 hrs post dose by LC-MS/MS analysis. The data set is classed as ADME, organism-based. Particulars: in vivo; call rule not given here.
For data set [7], the target named is T3, Bile acid receptor (Homo sapiens, UniProt Q96RI1).
T3 sequence (Q96RI1 whole entry): T1 sequence (whole entry)
Kind of data set: Agonist activity at recombinant human GST-tagged FXR LBD (193 to 472 residues) expressed in baculovirus-infected insect cells assessed as recruitment of biotinylated SRC1 peptide measured after 1 hr by Alphascreen assay. (In general: Bead proximity is the source of the signal in Alpha formats.)

Data set [8] can be described thus: Drug level in C57BL/6 mouse liver at 2 mg/kg, po administered as single cassette dose via gavage measured at 0.5 hrs post dose by LC-MS/MS analysis. Conditions: in vivo. The class given is ADME, organism-based.
The nature of data set [9]: Ratio of drug level in liver to plasma in C57BL/6 mouse at 2 mg/kg, po administered as single cassette dose via gavage measured at 0.5 hrs post dose. The class given is ADME, organism-based.
In data set [10] the test system is Mus musculus. Kind of data set: AUC in C57BL/6 mouse assessed as tauro-INT-747 level at 10 mg/kg, po administered via gavage. The class given is ADME, organism-based. Particulars: in vivo.
For data set [11], the system named is Mus musculus. As to the kind of experiment: Cmax in C57BL/6 mouse assessed as glyco-INT-747 level at 10 mg/kg, po administered via gavage. Conditions: in vivo, BLD = below limit of detection. The data set is classed as ADME, organism-based. On the set-up: dose 10 mg/kg, route oral.
Data set [12] is described as follows: Drug level in C57BL/6 mouse plasma at 10 mg/kg, po administered as single dose via gavage measured at 0.5 hrs post dose by LC-MS/MS analysis. The data set is classed as ADME, organism-based.
Data set [13] in a line: Cmax in C57BL/6 mouse at 10 mg/kg, po administered via gavage. The data set is classed as ADME, organism-based. Further details: dose 10 mg/kg, route oral. Particulars: in vivo.
In data set [14] the test system is Mus musculus. As to the kind of experiment: Anti-hepatic steatosis activity in HFD/CCl4-induced non-alcoholic hepatic steatosis C57BL/6 mouse model assessed as reduction in hepatic steatosis score at 30 mg/kg, po administered once daily via gavage for 28 days measured at post last dose by hematoxylin-eosin staining based assay. Particulars: in vivo, 672 h. The class given is ADME, organism-based.

A short description of data set [15]: Tmax in C57BL/6 mouse at 10 mg/kg, po administered via gavage. Particulars: in vivo. The class given is ADME, organism-based.
A short description of data set [16]: AUC in C57BL/6 mouse at 10 mg/kg, po administered via gavage. The data set is classed as ADME, organism-based. Conditions: in vivo.
For data set [17], the system named is Mus musculus. Kind of data set: Anti-hepatic steatosis activity in HFD/CCl4-induced non-alcoholic hepatic steatosis C57BL/6 mouse model assessed as reduction in triglyceride level at 30 mg/kg, po administered once daily via gavage for 28 days measured at post last dose by […] assay. The data set is classed as ADME, organism-based. Particulars: in vivo, 672 h.

Data set [18] in a line: Drug level in C57BL/6 mouse plasma at 10 mg/kg, po administered as single dose via gavage measured at 3 hrs post dose by LC-MS/MS analysis. The class given is ADME, organism-based.
The nature of data set [19]: Drug level in C57BL/6 mouse liver at 10 mg/kg, po administered as single dose via gavage measured at 0.5 hrs post dose by LC-MS/MS analysis. Particulars: in vivo. The data set is classed as ADME, organism-based.
The subject of data set [20] is Mus musculus. As to the kind of experiment: AUC in C57BL/6 mouse assessed as glyco-INT-747 level at 10 mg/kg, po administered via gavage. The class given is ADME, organism-based. Conditions: in vivo, BLD = below limit of detection.
In data set [21] the test system is Mus musculus. As to the kind of experiment: Anti-hepatic steatosis activity in HFD/CCl4-induced non-alcoholic hepatic steatosis C57BL/6 mouse model assessed as reduction in liver fibrosis at 30 mg/kg, po administered once daily via gavage for 28 days measured at post last dose by sirus red staining based assay. The data set is classed as ADME, organism-based. Particulars: in vivo, 672 h.

The subject of data set [22] is Mus musculus. Kind of data set: Tmax in C57BL/6 mouse assessed as tauro-INT-747 level at 10 mg/kg, po administered via gavage. The data set is classed as ADME, organism-based. Particulars: in vivo.
A short description of data set [23]: Drug level in C57BL/6 mouse liver at 10 mg/kg, po administered as single dose via gavage measured at 3 hrs post dose by LC-MS/MS analysis. The data set is classed as ADME, organism-based. Conditions: in vivo.
For data set [24], the system named is Mus musculus. As to the kind of experiment: Cmax in C57BL/6 mouse assessed as tauro-INT-747 level at 10 mg/kg, po administered via gavage. The data set is classed as ADME, organism-based. Further details: dose 10 mg/kg, route oral. Particulars: in vivo.
The target in data set [25] is T1, Bile acid receptor (Homo sapiens). Kind of data set: Agonist activity at FXR (unknown origin) measured after 16 hrs in presence of CCF4-AM dye by cell-based GeneBlazer FRET assay relative to CDCA.
The target of data set [26] is T3, Bile acid receptor. As to the kind of experiment: Agonist activity at FXR (unknown origin) measured after 16 hrs in presence of CCF4-AM dye by cell-based GeneBlazer FRET assay.

Consider `CC[C@H]1[C@@H](O)[C@@H]2[C@H](CC[C@]3(C)[C@@H]([C@H](C)CCc4cc(O)no4)CC[C@@H]23)[C@@]2(C)CC[C@@H](O)C[C@@H]12`, for which the Ratio EC50 in the data set filed under Homo sapiens was determined as 17. Besides, the Efficacy in data set [1] is 121%. Further, in data set [2], the concentration at 3 h was determined as 6 nM. For the same molecule, the pEC50 was 6.28 in [3] and 7.52 on Bile acid receptor [7]. Also, the Kp at 3 h in data set [4] is 43. In [5], this molecule registered a concentration at 0.5 h of 43 nM. The results for the Drug uptake in data set [6] and in data set [8] were 257 nmol/kg and 1896 nmol/kg, respectively. The Kp at 0.5 h in data set [9] was determined as 44.

As to `CC[C@H]1[C@@H](O)[C@@H]2[C@H](CC[C@]3(C)[C@@H]([C@H](C)CCC(=O)O)CC[C@@H]23)[C@@]2(C)CC[C@@H](O)C[C@@H]12` [OBETICHOLIC ACID], the AUC with Mus musculus [10] was 18.059 µM·h; in data set [16] it was 0.713 µM·h; with Mus musculus [20], “Bld”. Besides, the Cmax result with Mus musculus [11] is “Bld”; in [13], 1540 nM; in the data set with Mus musculus [24], 838 nM. Also, the values for the concentration at 0.5 h in data set [12] and in [5] were 478 nM and 151 nM, respectively. For the same molecule, the outcome in the data set on Mus musculus [14], in the data set on Mus musculus [17] and in the data set on Mus musculus [21] was Active. Moreover, the Tmax in data set [15] was 15 min; in the data set with Mus musculus [22] it was 480 min. In addition, the values for the concentration at 3 h in [2] and in data set [18] were 64 nM and 10 nM, respectively. In addition, the Drug uptake in data set [6] amounted to 625 nmol/kg; in [19], 1723 nmol/kg; in data set [8], 711 nmol/kg; in [23], 111 nmol/kg.

On to `CCOC(=O)NCC[C@@H](C)[C@H]1CC[C@H]2[C@@H]3[C@H](O)[C@H](CC)[C@@H]4C[C@H](O)CC[C@]4(C)[C@H]3CC[C@]12C`, for which, in the data set listed under Homo sapiens, the Ratio EC50 turned out to be 1. The Efficacy stood at 138% in data set [1] and 174% in data set [25]. Besides, the pEC50 in data set [3] was 6.55; on Bile acid receptor [26], 7.00; on Bile acid receptor [7], 6.55.

With `CC[C@H]1[C@@H](O)[C@@H]2[C@H](CC[C@]3(C)[C@@H]([C@H](C)CCNC(=O)C(=O)O)CC[C@@H]23)[C@@]2(C)CC[C@@H](O)C[C@@H]12`, in the data set filed under Homo sapiens, the Ratio EC50 amounted to 12. Also, the Efficacy in data set [1] is 109%. Besides, the concentration at 3 h in [2] is 38 nM. For the same molecule, the pEC50 in [3] is 6.62; at Bile acid receptor [7], 7.70. For the same molecule, the Kp at 3 h in data set [4] turned out to be 36. In [5], this molecule came in with a concentration at 0.5 h of 21 nM. The values for the Drug uptake in [6] and in data set [8] were 1363 nmol/kg and 277 nmol/kg, respectively. The Kp at 0.5 h in [9] was found to be 13.

In [2], `CC[C@H]1[C@@H](O)[C@@H]2[C@H](CC[C@]3(C)[C@@H]([C@H](C)CCc4nnn[nH]4)CC[C@@H]23)[C@@]2(C)CC[C@@H](O)C[C@@H]12` displayed a concentration at 3 h of 19 nM. Besides, the values for the pEC50 (in data set [3]; on Bile acid receptor [7]) were 5.75 and 7.22, respectively. Besides, in data set [4], the Kp at 3 h is 76. Moreover, in data set [5], the concentration at 0.5 h worked out at 868 nM. Besides, the Drug uptake in data set [6] stood at 1443 nmol/kg; in data set [8], 5693 nmol/kg. Further, in [9], the concentration ratio (Kp) at 0.5 h is 7.

Turning to `CC[C@H]1[C@@H](O)[C@@H]2[C@H](CC[C@]3(C)[C@@H]([C@H](C)CCNC(=O)O[C@H]4CCOC4)CC[C@@H]23)[C@@]2(C)CC[C@@H](O)C[C@@H]12`, the Ratio EC50 in the data set filed under Homo sapiens was found to be 3. Moreover, the Efficacy in [1] was determined as 109%; in data set [25], 167%. In addition, the pEC50 in [3] is 6.62; at Bile acid receptor [26], 7.10; at Bile acid receptor [7], 7.05.

What is called pEC50 is the EC50 on a negative log10 scale, so that one unit is a factor of ten. A word on the Kp: it is tissue or fluid exposure divided by exposure in the circulation. In general, AUC refers to concentration integrated over time. For orientation: Cmax means the highest concentration seen after dosing. What is called Tmax is the time at which the peak concentration occurs.
